Data taken from EP0565593B1, “REDUCING PESTICIDAL INTERACTIONS IN CROPS” (priority 1990, dated 1992).

Test system: Velvetleaf (VELE)
Assay: whole plant or invertebrate
Type: in vivo, Abutilon theophrasti
Settings: […]; PPI; 14 days after PPI (Table 34)

## COC(=O)COC(c1ccccc1)c1ccccc1 [compound 12]
  % Inhibition VELE: 90%
